Assay [1] addresses T1, hNET (Homo sapiens, UniProt P23975).
T1 construct: expressed in transfected cells; host or cells: HEK-293
The assay is described as follows: hNET membrane radioligand binding assay (Assay 1, 3H-nisoxetine). As to conditions: Assay 1, membranes of HEK-293 cells expressing hNET; read-out: NET pKi (converted). On the procedure:
(§1) Membrane radioligand binding assays were used to measure competitive inhibition of labeled ligand (^3H-citalopram or ^3H-nisoxetine or ^3H-WIN35428) binding to membranes prepared from cells expressing the respective human recombinant transporter (hSERT or hNET or hDAT) in order to determine the pKi values of test compounds at the transporters.
(§2) Recombinant human embryonic kidney (HEK-293) derived cell lines stably transfected with hSERT or hNET, respectively, were grown in DMEM medium supplemented with 10% dialyzed FBS (for hSERT) or FBS (for hNET), 100 μg/ml penicillin, 100 μg/ml streptomycin, 2 mM L-glutamine and 250 μg/ml of the aminoglycoside antibiotic G418, in a 5% CO2 humidified incubator at 37° C. When cultures reached 80% confluence, the cells were washed thoroughly in PBS (without Ca^2+ and Mg^2+) and lifted with 5 mM EDTA in PBS. Cells were pelleted by centrifugation, resuspended in lysis buffer (10 mM Tris-HCl, pH7.5 containing 1 mM EDTA), homogenized, pelleted by centrifugation, then resuspended in 50 mM Tris-HCl, pH 7.5 and 10% sucrose at 4° C. Protein concentration of the membrane suspension was determined using a Bio-Rad Bradford Protein Assay kit. Membranes were snap frozen and stored at −80° C. Chinese hamster ovary membranes expressing hDAT (CHO-DAT) were purchased from PerkinElmer and stored at −80° C.
(§3) Binding assays were performed in a 96-well assay plate in a total volume of 200 μl assay buffer (50 mM Tris-HCl, 120 mM NaCl, 5 mM KCl, pH 7.4) with 0.5, 1, and 3 μg membrane protein, for SERT, NET and DAT, respectively.
(§4) Stock solutions (10 mM in DMSO) of test compound were prepared and serial dilutions made using Dilution Buffer (50 mM Tris-HCl, 120 mM NaCl, 5 mM KCl, pH 7.4, 0.1% BSA, 400 μM ascorbic acid).
(§5) Following a 60 minute incubation at 22° C. (or a period sufficient to reach equilibrium), the membranes were harvested by rapid filtration over a 96-well UniFilter GF/B plate, pretreated with 0.3% polyethyleneimine, and washed 6 times with 300 μl wash buffer (50 mM Tris-HCl, 0.9% NaCl, pH 7.5 at 4° C.). Plates were dried overnight at room temperature, 45 μl of MicroScint™-20 (Perkin Elmer) added and bound radioactivity quantitated via liquid scintillation spectroscopy. Competitive inhibition curves and saturation isotherms were analyzed using GraphPad Prism Software package (GraphPad Software, Inc., San Diego, Calif.). IC50 values were generated from concentration response curves using the Sigmoidal Dose Response (variable slope) algorithm in Prism GraphPad.

Assay [2] deals with T2, hSERT (Homo sapiens, UniProt P31645).
T2 construct: expressed in transfected cells; host or cells: HEK-293
T2 sequence (P31645 whole entry): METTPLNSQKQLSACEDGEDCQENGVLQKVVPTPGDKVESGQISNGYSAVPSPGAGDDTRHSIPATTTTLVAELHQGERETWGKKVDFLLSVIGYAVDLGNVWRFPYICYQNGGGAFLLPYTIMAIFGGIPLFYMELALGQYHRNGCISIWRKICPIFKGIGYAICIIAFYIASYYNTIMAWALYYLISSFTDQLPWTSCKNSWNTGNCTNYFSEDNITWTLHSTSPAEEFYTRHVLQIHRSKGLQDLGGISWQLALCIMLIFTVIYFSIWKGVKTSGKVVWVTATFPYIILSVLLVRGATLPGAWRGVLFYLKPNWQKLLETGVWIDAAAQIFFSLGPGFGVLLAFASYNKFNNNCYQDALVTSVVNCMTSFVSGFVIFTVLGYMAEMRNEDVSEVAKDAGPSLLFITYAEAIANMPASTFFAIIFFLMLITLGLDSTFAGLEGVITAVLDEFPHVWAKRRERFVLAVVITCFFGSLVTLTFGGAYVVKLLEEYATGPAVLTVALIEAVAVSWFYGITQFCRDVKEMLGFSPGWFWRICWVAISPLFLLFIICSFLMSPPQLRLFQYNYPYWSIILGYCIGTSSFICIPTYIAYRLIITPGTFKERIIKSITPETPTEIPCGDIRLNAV
As to the kind of experiment: hSERT membrane radioligand binding assay (Assay 1, 3H-citalopram). As to conditions: Assay 1, membranes of HEK-293 cells expressing hSERT; read-out: SERT pKi (converted). On the procedure:
as §1, §2, §3, §4, §5

T1 sequence (P23975 whole entry): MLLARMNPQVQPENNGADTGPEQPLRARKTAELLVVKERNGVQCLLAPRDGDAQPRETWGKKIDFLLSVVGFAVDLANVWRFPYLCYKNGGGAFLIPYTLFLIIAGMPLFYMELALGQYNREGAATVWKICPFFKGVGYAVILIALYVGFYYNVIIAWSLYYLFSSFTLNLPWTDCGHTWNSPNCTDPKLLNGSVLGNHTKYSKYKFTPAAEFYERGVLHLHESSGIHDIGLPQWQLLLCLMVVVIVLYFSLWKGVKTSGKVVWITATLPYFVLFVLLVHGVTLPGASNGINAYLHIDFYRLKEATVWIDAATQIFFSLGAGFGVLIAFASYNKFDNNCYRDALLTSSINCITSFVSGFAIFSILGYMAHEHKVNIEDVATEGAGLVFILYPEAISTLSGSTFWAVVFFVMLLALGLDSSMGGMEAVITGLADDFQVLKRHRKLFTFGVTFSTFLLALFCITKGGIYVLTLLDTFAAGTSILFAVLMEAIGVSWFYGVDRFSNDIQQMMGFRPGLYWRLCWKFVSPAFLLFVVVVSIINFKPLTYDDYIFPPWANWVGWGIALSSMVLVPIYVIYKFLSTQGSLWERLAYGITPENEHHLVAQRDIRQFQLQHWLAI

For the compound `Clc1ccccc1OCc1ccccc1C1CCNCC1` [Compound 2-chloro], the Ki in assay [1] is 31.6 nM; in assay [2], 3.98 nM.
Turning to `Cc1ccccc1OCc1ccccc1C1CCNCC1` [Compound 2-methyl], the Ki is 31.6 nM in assay [1] and 1.58 nM in assay [2].
In the case of `Fc1ccccc1OCc1ccccc1C1CCNCC1` [Compound 3-1], the results for the Ki in assay [1] and in assay [2] were 5.01 nM and 12.6 nM, respectively.
In the case of `c1ccc(OCc2ccccc2C2CCNCC2)cc1` [unsubstituted], the Ki in assay [1] is 39.8 nM; in assay [2], 31.6 nM.

The values are drawn from patent publication US10946007B2, “4-[2-(2-fluorophenoxymethyl)phenyl]piperidine compounds” (THERAVANCE BIOPHARMA R&D IP, LLC, priority 2008, dated 2021).
